This test addresses T1, Human pyruvate kinase R (PKR) (Homo sapiens, UniProt P30613).
T1 construct: Human pyruvate kinase R (PKR), residues 14-574; 6x-His (N, cleaved yes); 8x-Arg (N, cleaved yes); SUMO (N, cleaved yes); host or cells: E. coli
The experiment in a line: Biochemical assay for activation of pyruvate kinase R (Kinase-Glo luminescence measurement of ATP generation). Conditions: for AC50: PKR biochemical assay, 0.1 nM PKR, 0.3 mM ADP, 2 mM FBP, 0.1 mM PEP; for Emax: maximal activation level relative to the activation level achieved by the literature compound AG-348 @ 10 μM. Put shortly:
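Recombinant human PKR (residues 14-574), E. coli-expressed with His-Arg-SUMO tag removed, purified by Ni-NTA, anion exchange and size exclusion. Activation measured as ATP generation via Kinase-Glo luminescence.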

Experimental findings from patent US20230278984A1 (Global Blood Therapeutics, Inc., priority 2020, published 2023) are described below.

T1 sequence (P30613 14-574): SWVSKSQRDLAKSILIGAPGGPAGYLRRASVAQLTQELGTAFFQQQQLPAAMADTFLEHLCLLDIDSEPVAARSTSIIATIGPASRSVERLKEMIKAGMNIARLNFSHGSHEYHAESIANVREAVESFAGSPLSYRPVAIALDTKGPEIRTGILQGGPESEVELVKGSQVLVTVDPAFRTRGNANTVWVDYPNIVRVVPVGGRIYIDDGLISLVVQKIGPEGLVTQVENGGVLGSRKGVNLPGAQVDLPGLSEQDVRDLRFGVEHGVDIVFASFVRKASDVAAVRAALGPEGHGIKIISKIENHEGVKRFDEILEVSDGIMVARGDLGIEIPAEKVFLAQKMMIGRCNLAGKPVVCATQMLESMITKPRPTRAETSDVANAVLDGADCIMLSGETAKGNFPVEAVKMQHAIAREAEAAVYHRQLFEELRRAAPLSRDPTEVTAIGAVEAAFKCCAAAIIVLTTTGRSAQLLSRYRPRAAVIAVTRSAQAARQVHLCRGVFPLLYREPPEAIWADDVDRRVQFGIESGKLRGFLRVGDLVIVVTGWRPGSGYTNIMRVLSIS

As for `CCN(Cc1ncnn1-c1cnc2ccccc2c1)C(=O)NCc1nc(C)nn1-c1ccc(Cl)c(F)c1` [Compound 142, 1-{[1-(4-chloro-3-fluorophenyl)-3-methyl-1H-1,2,4-triazol-5-yl]methyl}-3-ethyl-3-{[1-(quinolin-3-yl)-1H-1,2,4-triazol-5-yl]methyl}urea], the activity was half-maximal at 250 nM (AC50) and the maximal effect (Emax) was 127%.
`Cc1nc(CNC(=O)NCc2ncnn2-c2ccc3cc(F)cnc3c2)n(-c2ccc(Cl)c(F)c2)n1` [Compound 48, 1-{[1-(4-chloro-3-fluorophenyl)-3-methyl-1H-1,2,4-triazol-5-yl]methyl}-3-{[1-(3-fluoroquinolin-7-yl)-1H-1,2,4-triazol-5-yl]methyl}urea] had an AC50 of 83 nM and an Emax of 74%.
As to `Cc1nc(CNC(=O)NCc2ncnn2-c2ccc(C3CCC3)nc2)n(-c2ccc(Cl)c(F)c2)n1` [Compound 132, 1-{[1-(4-chloro-3-fluorophenyl)-3-methyl-1H-1,2,4-triazol-5-yl]methyl}-3-{[1-(6-cyclobutylpyridin-3-yl)-1H-1,2,4-triazol-5-yl]methyl}urea], the AC50 came to 490 nM and the Emax came to 64%.
The molecule `Cc1nc(CNC(=O)NCc2ncnn2-c2cnc3ccc(F)cc3c2)n(-c2ccc(Cl)c(F)c2)n1` [Compound 139, 1-{[1-(4-chloro-3-fluorophenyl)-3-methyl-1H-1,2,4-triazol-5-yl]methyl}-3-{[1-(6-fluoroquinolin-3-yl)-1H-1,2,4-triazol-5-yl]methyl}urea] gave an AC50 of 61 nM and an Emax of 96%.
`Cc1ccc2ccc(-n3ncnc3CNC(=O)NCc3nc(C)nn3-c3ccc(Cl)c(F)c3)cc2n1` [Compound 29, 3-{[1-(4-chloro-3-fluorophenyl)-3-methyl-1H-1,2,4-triazol-5-yl]methyl}-1-{[1-(2-methylquinolin-7-yl)-1H-1,2,4-triazol-5-yl]methyl}urea]: the AC50 worked out at 110 nM and the maximal effect (Emax) turned out to be 78%.
Consider `Cc1nc(CNC(=O)NCC2=NC3(CC3)C(=O)N2c2ccc3cccnc3c2)n(-c2ccc(Cl)c(F)c2)n1` [Compound 111, 1-{[1-(4-chloro-3-fluorophenyl)-3-methyl-1H-1,2,4-triazol-5-yl]methyl}-3-{[7-oxo-6-(quinolin-7-yl)-4,6-diazaspiro[2.4]hept-4-en-5-yl]methyl}urea], for which the AC50 was determined as 140 nM and the Emax was 105%.
The like results for `O=C(NCc1ncnn1-c1ccc(Cl)c(F)c1)NCc1nnnn1-c1ccc2c(c1)OC(F)(F)O2` [Compound 76, 1-{[1-(4-chloro-3-fluorophenyl)-1H-1,2,4-triazol-5-yl]methyl}-3-{[1-(2,2-difluoro-2H-1,3-benzodioxol-5-yl)-1H-1,2,3,4-tetrazol-5-yl]methyl}urea] were, in that order, 460 nM and 74%.
For `COC(=O)c1cc(-n2nc(C)nc2CNC(=O)NCc2nc(C)nn2-c2ccc(Cl)c(F)c2)ccc1Cl` [Compound 95, methyl 2-chloro-5-(5-{[({[1-(4-chloro-3-fluorophenyl)-3-methyl-1H-1,2,4-triazol-5-yl]methyl}carbamoyl)amino]methyl}-3-methyl-1H-1,2,4-triazol-1-yl)benzoate], the AC50 came to 68 nM and the Emax turned out to be 87%.
The like results for `Cc1nc(CNC(=O)NCc2ncnn2-c2ccc(Cl)c(F)c2)n(-c2ccc3cccnc3c2)n1` [Compound 85, 1-{[1-(4-chloro-3-fluorophenyl)-1H-1,2,4-triazol-5-yl]methyl}-3-{[3-methyl-1-(quinolin-7-yl)-1H-1,2,4-triazol-5-yl]methyl}urea] were, in that order, 36 nM and 67%.
As to `Cc1nc(CNC(=O)NCc2ncnn2-c2cc(C)c3nccnc3c2)n(-c2ccc(Cl)c(F)c2)n1` [Compound 103, 1-{[1-(4-chloro-3-fluorophenyl)-3-methyl-1H-1,2,4-triazol-5-yl]methyl}-3-{[1-(8-methylquinoxalin-6-yl)-1H-1,2,4-triazol-5-yl]methyl}urea], the activity was half-maximal at 110 nM (AC50) and the Emax was 73%.
